What all share (format): cell-based
For test [1], the target named is T1, human SPPL2a (Homo sapiens, UniProt Q8TCT8).
T1 sequence (Q8TCT8 26-520): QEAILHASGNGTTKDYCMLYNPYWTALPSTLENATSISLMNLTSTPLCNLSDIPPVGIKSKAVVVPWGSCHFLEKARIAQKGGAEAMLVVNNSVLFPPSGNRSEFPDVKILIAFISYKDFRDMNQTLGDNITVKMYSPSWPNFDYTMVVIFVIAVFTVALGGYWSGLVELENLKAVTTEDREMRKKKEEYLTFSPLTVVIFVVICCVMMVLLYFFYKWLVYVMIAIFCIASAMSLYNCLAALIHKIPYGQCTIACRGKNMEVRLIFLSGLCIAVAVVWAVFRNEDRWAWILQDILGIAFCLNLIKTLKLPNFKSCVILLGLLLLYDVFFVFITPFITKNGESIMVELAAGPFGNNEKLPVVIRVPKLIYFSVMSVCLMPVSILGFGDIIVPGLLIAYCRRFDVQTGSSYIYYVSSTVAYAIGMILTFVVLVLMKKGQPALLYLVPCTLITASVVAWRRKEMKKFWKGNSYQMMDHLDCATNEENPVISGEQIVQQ
The test can be described thus: Sppl2a TL (translocation) imaging assay in U-2 OS cells. More on the design: expressed in transfected cells. The following applies: U-2 OS cells expressing human SPPL2a and EGFP-TNFα(aa1-76) NTF substrate; 24 h. Put shortly: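 U-2 OS cells stably expressing human SPPL2a plus doxycycline-induced EGFP-TNFα(aa1-76) NTF, treated 24 h at 37 °C with inhibitor (100 μM–1 nM, 11 points, 0.9% DMSO, 5 μg/mL doxycycline). Imaging of nuclear-minus-cytoplasmic EGFP intensity; % inhibition versus 0.5 μM LY-411,575 and DMSO, IC50 by nonlinear regression; CC50 from cell count.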

In test [2] the target is T2, Sppl2a CD74 (Mus musculus, UniProt Q9JJF9).
T2 construct: Mouse whole blood Balb/c mice (sodium citrate) was ordered by Bioreclamation LLC; tissue Bioreclamation LLC
T2 sequence (Q9JJF9 26-523): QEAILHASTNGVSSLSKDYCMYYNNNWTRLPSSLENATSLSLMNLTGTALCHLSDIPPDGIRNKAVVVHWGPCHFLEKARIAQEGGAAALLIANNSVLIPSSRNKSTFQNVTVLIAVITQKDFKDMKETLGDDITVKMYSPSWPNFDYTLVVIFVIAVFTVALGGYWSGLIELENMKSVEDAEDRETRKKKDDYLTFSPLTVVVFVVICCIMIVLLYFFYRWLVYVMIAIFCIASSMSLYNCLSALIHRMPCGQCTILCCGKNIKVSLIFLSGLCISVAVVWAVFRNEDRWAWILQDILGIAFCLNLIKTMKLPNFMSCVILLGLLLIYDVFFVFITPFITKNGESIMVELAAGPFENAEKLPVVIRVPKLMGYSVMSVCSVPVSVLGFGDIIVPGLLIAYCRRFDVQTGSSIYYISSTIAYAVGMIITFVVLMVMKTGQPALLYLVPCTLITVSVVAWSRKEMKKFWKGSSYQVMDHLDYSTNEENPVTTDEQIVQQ
Nature of the test: CD74/p8 mouse whole blood assay, flow cytometry format. The following applies: Balb/c mouse whole blood, 5 h, CD74 signal on gated live B cells. How it is done:
CD74/p8 Mouse Whole Blood Assay: Flow Cytometry Format
Mouse whole blood Balb/c mice (sodium citrate) was ordered by Bioreclamation LLC; USA. The blood was used the next day upon receipt (stored at 4° C.). 100 μL blood were transferred in 96 well format plate, where compounds, an 11 point dilutions down from 30 μM, to be tested were previously deposited. The plate was incubated for 5 h in the incubator at 37° C., 5% CO2 under continuous motion. After the incubation the blood was diluted with RBC Lysis Buffer (Amined; Cat. Nr 3-13F00-H or BD; Cat. Nr 555899). The solution was mixed by pipetting and incubated 10 min in the 37° C. incubator. The white blood cells were sedimented for 3 min at 2000 rpm. After removing the supernatant the cell pellet was resuspended and washed twice in RCB Buffer and kept≈ 5 min at room temperature, followed by a centrifugation for 2 min at 2000 rpm. The cell pellet was then resuspend in D-PBS and centrifuged twice. Finally, the cells were taken up in of D-PBS/0.5% inactivated fetal bovine serum/2 mM EDTA. The cell suspension was treated with Live/Dead fixable stain (Life Technologies, >470 nm version), B cells were identified by surface staining with an anti-B220 antibody coupled to APC fluorofor. After staining, the cells were extensively washed with PBS. The cells were permeabilized and fixed in FACS lysing buffer; (BD; #349202, dil 1:10 in water) and labelled with an anti CD74, FITC labelled antibody, washed once more with diluted FACS lysing buffer and spin down. The cell pellet was washed with D-PBS/0.5% inactivated fetal bovine serum/2 mM EDTA and PBS prior to the analysis in a flow cytometer. The compound concentrations were plotted against the intensity (medium fluorescence intensity) of the CD74 signal on the gated life B cell and IC50 were determined by fitting data for a 11 concentrations dose response.

In test [3] the target is T1, human SPPL2a. The test can be described thus: Sppl2a RGA (reporter gene assay) in HEK293 cells. Details: expressed in transfected cells; host or cells: HEK293 (transient). To be noted: NT-TNF-VP16-Gal4 substrate, Gal4-luciferase reporter, 24 h. Put shortly: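 HEK293 cells transiently co-transfected with human SPPL2a, NT-TNF-VP16-Gal4 substrate and Gal4-luciferase reporter, compound added within 5 h. After 24 h at 37 °C, luciferase luminescence measured; IC50 from concentration versus normalized luminescence.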

SMILES strings stand for the structures.

Take `CC[C@H](CNC(=O)c1sc(C2=CCOCC2)nc1C)C(=O)N[C@@H]1C(=O)N2CCCN2Cc2ccccc21` [Example 26, 2-(3,6-Dihydro-2H-pyran-4-yl)-4-methyl-N-((R)-2-(((S)-11-oxo-2,3,10,11-tetrahydro-1H,5H-benzo[d]pyrazolo [1,2-a][1,2]diazepin-10-yl)carbamoyl)butyl) thiazole-5-carboxamide]: the IC50 in test [1] amounted to 0.025 µM; in test [2], 2.23 µM; in test [3], 0.101 µM.
Turning to `Cc1nc(C(=O)NC(C)C)sc1C(=O)NC[C@H](C(=O)N[C@@H]1C(=O)N2CCCN2Cc2ccccc21)C1CC1` [Example 27, N^5-((R)-2-Cyclopropyl-3-oxo-3-(((S)-11-oxo-2,3,10,11-tetrahydro-1H,5H-benzo[d]pyrazolo [1,2-a][1,2]diazepin-10-yl)amino)propyl)-N^2-isopropyl-4-methylthiazole-2,5-dicarboxamide], the concentration for half-maximal inhibition (IC50) in test [1] stood at 0.026 µM; in test [2], 0.947 µM; in test [3] it was 0.005 µM.
With `CC[C@H](CNC(=O)c1sc(-c2ccno2)nc1C)C(=O)N[C@@H]1C(=O)N2CCCN2Cc2ccccc21` [Example 32, 2-(Isoxazol-5-yl)-4-methyl-N-((R)-2-(((S)-11-oxo-2,3,10,11-tetrahydro-1H,5H-benzo[d]pyrazolo [1,2-a][1,2]diazepin-10-yl)carbamoyl)butyl) thiazole-5-carboxamide], the half-inhibitory concentration (IC50) in test [1] came out at 0.037 µM; in test [2], 0.174 µM; in test [3], 0.01 µM.
Turning to `COCC[C@H](CNC(=O)c1sc(-c2cc(C)no2)nc1C)C(=O)N[C@@H]1C(=O)N2CCCN2Cc2ccccc21` [Example 42, N-((R)-4-Methoxy-2-(((S)-11-oxo-2,3,10,11-tetrahydro-1H,5H-benzo[d]pyrazolo [1,2-a][1,2]diazepin-10-yl)carbamoyl)butyl)-4-methyl-2-(3-methylisoxazol-5-yl)thiazole-5-carboxamide], the IC50 in test [1] came to 0.062 µM; in test [2] it was 0.847 µM; in test [3], 0.027 µM.
The corresponding values for `C[C@H](CNC(=O)c1sc(C2CC2)nc1Cl)C(=O)N[C@@H]1C(=O)N2CCCN2Cc2ccccc21` [Example 43, 4-Chloro-2-cyclopropyl-N-((R)-2-methyl-3-oxo-3-(((S)-11-oxo-2,3,10,11-tetrahydro-1H,5H-benzo[d]pyrazolo [1,2-a][1,2]diazepin-10-yl)amino)propyl) thiazole-5-carboxamide] are 0.063 µM, 1.74 µM and 0.104 µM.
The matching figures for `CC[C@H](CNC(=O)c1sc(-c2cnn(C(F)F)c2)nc1Cl)C(=O)N[C@@H]1C(=O)N2CC3(CC3)CN2C(=O)c2ccccc21` [Example 45, 4-Chloro-2-(1-(difluoromethyl)-1H-pyrazol-4-yl)-N-((R)-2-(((S)-5,11-dioxo-10,11-dihydro-1H,3H,5H-spiro[benzo[d]pyr-azolo[1,2-a][1,2]diazepine-2,1′-cyclopropan]-10-yl)carbamoyl)butyl) thiazole-5-carboxamide]: 0.078 µM, 2.51 µM and 0.086 µM.
The corresponding values for `CC[C@H](CNC(=O)c1sc(C2=CCOCC2)nc1Cl)C(=O)N[C@@H]1C(=O)N2CCCN2Cc2ccccc21` [Example 46, 4-Chloro-2-(3,6-dihydro-2H-pyran-4-yl)-N-((R)-2-(((S)-11-oxo-2,3,10,11-tetrahydro-1H,5H-benzo[d]pyrazolo [1,2-a][1,2]diazepin-10-yl)carbamoyl)butyl) thiazole-5-carboxamide] are 0.079 µM, 2.68 µM and 0.054 µM.
As to `CC[C@H](CNC(=O)c1sc(C2CC2)nc1C)C(=O)N[C@@H]1C(=O)N2CCCN2Cc2ccccc21` [Example 47, 2-Cyclopropyl-4-methyl-N-((R)-2-(((S)-11-oxo-2,3,10,11-tetrahydro-1H,5H-benzo[d]pyrazolo [1,2-a][1,2]diazepin-10-yl)carbamoyl)butyl) thiazole-5-carboxamide], the IC50 in test [1] was found to be 0.083 µM; in test [2] it was 0.741 µM; in test [3] it was 0.041 µM.
In the case of `Cc1nc(C2CCOCC2)sc1C(=O)NC[C@H](C(=O)N[C@@H]1C(=O)N2CCCN2Cc2ccccc21)C(F)(F)F` [Example 50, 4-Methyl-2-(tetrahydro-2H-pyran-4-yl)-N-((R)-3,3,3-trifluoro-2-(((S)-11-oxo-2,3,10,11-tetrahydro-1H,5H-benzo[d]pyrazolo [1,2-a][1,2]diazepin-10-yl)carbamoyl)pro-pyl)thiazole-5-carboxamide], the half-maximal inhibitory concentration (IC50) in test [1] came to 0.097 µM; in test [2], 1.39 µM; in test [3] it was 0.09 µM.
Take `COCc1nc(C)c(C(=O)NC[C@H](C(=O)N[C@@H]2C(=O)N3CCCN3Cc3ccccc32)C(F)(F)F)s1` [Example 52, 2-(Methoxymethyl)-4-methyl-N-((R)-3,3,3-trifluoro-2-(((S)-11-oxo-2,3,10,11-tetrahydro-1H,5H-benzo[d]pyrazolo [1,2-a][1,2]diazepin-10-yl)carbamoyl)pro-pyl)thiazole-5-carboxamide]: the IC50 in test [1] was 0.118 µM; in test [2], 0.148 µM; in test [3] it was 0.03 µM.
The corresponding values for `CCOc1nc(C)c(C(=O)NC[C@@H](CC)C(=O)N[C@@H]2C(=O)N3CCCN3Cc3ccccc32)s1` [Example 53, 2-Ethoxy-4-methyl-N-((R)-2-(((S)-11-oxo-2,3,10,11-tetrahydro-1H,5H-benzo[d]pyrazolo [1,2-a][1,2]diazepin-10-yl)carbamoyl)butyl) thiazole-5-carboxamide] are 0.125 µM, 0.279 µM and 0.022 µM.
The corresponding values for `CC(C)C(=O)Nc1cc(NC(=O)C[C@@H](C)C(=O)N[C@@H]2C(=O)N3CCCN3Cc3ccccc32)n(C)n1` [Example 62, (R)—N^4-(3-Isobutyramido-1-methyl-1H-pyrazol-5-yl)-2-methyl-N^1—((S)-11-oxo-2,3,10,11-tetrahydro-1H,5H-benzo[d]pyrazolo[1,2-a][1,2]diazepin-10-yl)succinamide] are 0.0003 µM, 0.317 µM and 0.057 µM.
The matching figures for `CC(C)C(=O)Nc1cc(NC(=O)C[C@H](C(=O)N[C@@H]2C(=O)N3CCCN3Cc3ccccc32)C2CCC2)n(C)n1` [Example 63, (S)-2-Cyclobutyl-N^4-(3-isobutyramido-1-methyl-1H-pyrazol-5-yl)-N^1-((S)-11-oxo-2,3,10,11-tetrahydro-1H,5H-benzo[d]pyrazolo [1,2-a][1,2]diazepin-10-yl)succinamide]: 0.0006 µM, 0.343 µM and 0.011 µM.

(Values after US20230365571A1, “COMPOUNDS AND COMPOSITIONS AS Sppl2a INHIBITORS” (Novartis AG, priority 2020, published 2023).)
